Measurements: patent US9144579B2, “Polyesters and methods of use thereof” (Rutgers, The State University of New Jersey, priority 2012, dated 2015)
Where two headings read alike, the source gives them in different places.

Tests used:
[1] = Structure determination of released drugs (1H-NMR of day 5 release media); format: physicochemical; details: released at day 5, 1H-NMR chemical shifts and integration
Method: Release media from day 5 (time point with the highest drug concentration) were freeze-dried for 24 h at −40° C. and 133×10^−3 mBar (LABCONO Freeze Dry System/Freezon 4.5). The resulting white powder was dissolved in acidic water (5 mL, pH˜1) and extracted with DCM (5×3 mL). DCM was evaporated under reduced pressure and the samples dried under vacuum for 2 days. Solutions of the free drugs (1 and 2) were prepared and treated as described above for the release media. ^1H-NMR spectroscopy was used to confirm the chemical structures of the released drugs.

[2] = test system: NCTC clone 929 (strain L) mouse areolar fibroblast cells (L929 cells); details: 0.5% DMSO
Method: Polymers and diacids were separately dissolved in dimethyl sulfoxide (DMSO) and diluted with cell media to reach concentrations of 0.10 and 0.05 mg/mL. These solutions were sterilized under UV at λ=254 nm for 900 s (Spectronics Corporation, Westbury, N.Y.) and then allocated to wells in a 96-well plate with 2000 cells/well. DMSO (0.5%) in cell media was used as negative control.
Cell viability was determined using CellTiter 96® Aqueous One Solution Cell Proliferation Assay. After 24 h, 48 h, and 72 h incubation with polymers or diacids, 20 μL of (3-(4,5-dimethylthiazol-2-yl)-5-(3-carboxymethoxyphenyl)-2-(4-sulfophenyl)-2H-tetrazolium) (MTS) reagent was added to each well and further incubated for 2 h at 37° C. The absorbance was then recorded with a microplate reader (Coulter, Boulevard Brea, Calif.) at 492 nm.

| SMILES | chemical structure of drug released from polymer versus free drug [1] | cell proliferation / viability ([2]; 0.05 mg/mL, 24, 48 and 72 h) | cell proliferation / viability ([2]; 0.10 mg/mL, 24, 48 and 72 h) |
| --- | --- | --- | --- |
| COc1ccc2cc([C@H](C)C(=O)O)ccc2c1 [compound 2, naproxen] | preserved | – | – |
| CC(C)Cc1ccc(C(C)C(=O)OC(C(=O)O)C(OC(=O)C(C)c2ccc(CC(C)C)cc2)C(=O)O)cc1 (stereo not drawn) [6a, Ibuprofen-tartaric diacid] | – | normal cell proliferation | normal cell proliferation |
| CC(C)Cc1ccc(C(C)C(=O)O)cc1 (stereo not drawn) [compound 1, ibuprofen] | preserved | – | – |
| COc1ccc2cc(C(C)C(=O)OC(C(=O)O)C(OC(=O)C(C)c3ccc4cc(OC)ccc4c3)C(=O)O)ccc2c1 (stereo not drawn) [6b, Naproxen-Tartaric Diacid] | – | normal cell proliferation | normal cell proliferation |
